Measurements: US9121022B2, “Method for controlling herbicide-resistant plants” (priority 2010, dated 2015)
Entries after “also recorded” stand apart in the source; their conditions may differ. d = 2'-deoxy (DNA); r = 2'-OH (RNA)

B1: Treatment 10: dsRNA corresponding to nucleotides 914-1113 of SEQ ID NO:2 (nucleic acid, listed as Nicotiana benthamiana)
chain: ACAGATTTCTTCAGGAGAAACATGGTTCAAAAATGGCCTTTTTAGATGGTAACCCTCCTGAGAGACTTTGCATGCCGATTGTGGAACATATTGAGTCAAAAGGTGGCCAAGTCAGACTAAACTCACGAATAAAAAAGATCGAGCTGAATGAGGATGGAAGTGTCAAATGTTTTATACTGAATAATGGCAGTACAATTAAA
modifications: double-stranded RNA
B2: 678 bp Palmer PDS dsRNA: dsRNA to positions 317-994 of Palmer amaranth PDS (SEQ ID NO:37) (nucleic acid, listed as Amaranthus palmeri)
sense: TAGGAGGAAAGGTTGCAGCGTGGAAGGATGAGGATGGTGACTGGTATGAGACTGGGCTACATATATTCTTTGGGGCATATCCAAATGTCCAAAATCTATTTGGAGAACTTGGTATAAATGACCGACTGCAATGGAAGGAGCACTCTATGATTTTTGCAATGCCCAGCAAGCCCGGTGAATTCAGTCGCTTTGATTTTCCCGAAATCCTGCCTGCACCATTAAATGGCATATGGGCAATCCTAAGAAATAATGAAATGCTAACCTGGCCAGAAAAAATCAAGTTTGCCATTGGCTTGTTGCCTGCTATGGCAGGCGGACAGTCATATGTTGAAGCACAAGATGGTTTGAGTGTCCAAGAGTGGATGAGAAAACAAGGAGTACCCGATCGTGTAACTGATGATGTGTTTATTGCCATGTCAAAGGCACTGAACTTCATAAATCCCGATGAACTTTCAATGCAGTGCATCTTGATTGCTCTGAACCGATTCCTGCAGGAGAAACATGGTTCTAAGATGGCCTTCCTAGACGGAAACCCTCCAGAGAGGCTGTGCATGCCTATTGTTAAACACATCGAGTCACTAGGTGGTGAAGTTAAACTTAACTCTCGTATACAAAAGATTCAGTTGGACCAGAGTGGAAGCGTGAAGAGTTTTTTGCTAAATAACGGGAGGGAAATAC
modifications: complementary strand
B3: 9 (nucleic acid)
chain 1: GCAAGAGATGTCCTAGGTGGG
chain 2: ACAGATTTCTTCAGGAGAAACATGG
chain 3: CATCTCCTTTAATTGTACTGCC
chain 4: TTTAATTGTACTGCCATTATTC
chain 5: CACTTCCATCCTCATTCAGCTCGAT
chain 6: ACACCTCATCTGTCACCCTATCAG
chain 7: CAGTCTCGTACCAATCTCCATCAT
modifications: DNA, backbone not given here

How the values were obtained:
[1] = system: Palmer amaranth (EPSPS copy numbers 16 to 112); assay: combinations of EPSPS, TIF and ddATPase polynucleotides with glyphosate, protocols of Table 12 (Example 26, Table 13); type: in vivo, Palmer amaranth (Amaranthus palmeri)
Method: The polynucleotides listed in Table 11 were produced by synthesis or by in vitro transcription.
Solutions of the polynucleotides were prepared and applied to the leaves of Palmer amaranth using the protocols described in Table 12.

[2] = system: Nicotiana benthamiana phytoene desaturase; assay: topical PDS oligonucleotides/polynucleotides on tobacco, bleaching and chlorophyll (Example 10); type: in vivo; settings: for Chlorophyll (day 7) / Chlorophyll (day 12): 6 spots on the apical area, lower values indicate suppression of phytoene desaturase; for systemic regulation (suppression) of the target phytoene desaturase gene: conclusion from Table 4; for Bleaching (day 5): day 5 after treatment
Excerpt: The target gene used was a Nicotiana benthamiana phytoene desaturase (SEQ ID NO:2), shown in FIG. 10; the segment consisting of nucleotides 421-1120 of SEQ ID NO:2 (underlined text in FIG. 10) was used to design a 700-mer dsRNA polynucleotide (“PDS 700-mer”) and the segment consisting of nucleotides 914-1113 of SEQ ID NO:2 (bolded underlined text in FIG. 10) was used to design a 200-mer dsRNA polynucleotide (“PDS 200-mer”). FIG. 11 schematically depicts the location of the sequences of these oligonucleotides and polynucleotides in relation to the […] (SEQ ID NO:2) sequence. Non-plant sequences obtained from corn rootworm (“CRW”), SEQ ID NOs:27, 28, 29, and 30 were used as non-homologous controls. Some of the polynucleotides included a T7 promoter sequence (indicated by lower-case text in Table 3) that is a promoter recognized by a bacteriophage T7 RNA polymerase.
The following procedure was used for all assays described in this example. Four-week old Nicotiana benthamiana plants were used in all assays. Plants were treated with 0.1% SILWET L-77® brand surfactant solution freshly made with ddH2O. Two fully expanded leaves per plant (one cotyledon, one true leaf) were dipped into the SILWET L-77® brand surfactant solution for a few seconds, and allowed to dry for 15-30 minutes before application of the polynucleotide composition. Final concentration for each oligonucleotide or polynucleotide was 25 microM (in 0.01% SILWET L-77® brand surfactant, 5 mM sodium phosphate buffer, pH 6.8) unless otherwise stated. 20 microliters of the solution was applied to the top surface of each of the two pre-treated leaves to provide a total of 40 microliters (1 nmol oligonucleotide or polynucleotide) for each plant. Leaf bleaching was observed 3 days post treatment.
FIG. 13 illustrates phenotypes observed at day 12 after treatment in another assay of the effect from twelve combinations of polynucleotides or oligonucleotides (see Table 4). Table 4 also lists observations of visible bleaching of the plants at day 5 after treatment and the results of chlorophyll measurements taken at days 7 and 12 after treatment. Chlorophyll measurements are an indication of suppression of the target gene phytoene desaturase, and measurements were taken at 6 spots on the apical area, focussing on visibly bleached leaves or (in plants without visible bleaching) on leaves in equivalent locations on the plants; lower chlorophyll measurement values indicate suppression of phytoene desaturase.

[3] = system: Palmer amaranth phytoene desaturase (PDS); assay: sequence specificity of PDS dsRNA on Palmer amaranth, leaf bleaching (Example 11); type: in vivo
Excerpt: Palmer amaranth phytoene desaturase (PDS) has the sequence […] […] […] […] […] […] […] […] […] […] […] […] […] […] […] […] […] […] […] […] […] […] […] […] (SEQ ID NO:37). A 678 base pair dsRNA polynucleotide with an anti-sense strand capable of hybridizing to the RNA encoded by the nucleotides at positions 317-994 (shown as underlined text) in SEQ ID NO:37 and a 198 base pair dsRNA polynucleotide with an anti-sense strand capable of hybridizing to the RNA encoded by the nucleotides at positions 797-994 (shown as italicized and underlined text) in SEQ ID NO:37 were synthesized.
Nicotiana benthamiana phytoene desaturase has the sequence […] […] […] […] […] […] […] […] […] […] […] […] […] […] […] […] […] […] […] […] […] […] […] […] […] […] (SEQ ID NO:38). A 685 base pair dsRNA polynucleotide with an anti-sense strand capable of hybridizing to the RNA encoded by the nucleotides at positions 421-1105 (shown as underlined text) in SEQ ID NO:38 and a 192 base pair dsRNA polynucleotide with an anti-sense strand capable of hybridizing to the RNA encoded by the nucleotides at positions 914-1105 (shown as italicized and underlined text) in SEQ ID NO:38 were synthesized.
Palmer amaranth plants having 16 copies of EPSPS and 5-8 inches high were treated with 0.1% SILWET L-77® brand surfactant solution freshly made with ddH2O. Four fully expanded leaves per plant were dipped into the SILWET L-77® brand surfactant solution for a few seconds, and allowed to dry for 30 minutes to 1 hour before application of the polynucleotide composition. Individual polynucleotide solutions were made for each of the 678 bp Palmer PDS dsRNA, 198 bp Palmer PDS dsRNA, the 685 bp Nicotiana benthamiana PDS dsRNA, and the 192 bp Nicotiana benthamiana PDS dsRNA (0.6 micromolar polynucleotide in 0.01% SILWET L-77® brand surfactant, 5 mM sodium phosphate buffer, pH 6.8). 10 microliters of polynucleotide solution (or buffer as a control) was applied to the top surface of each of the four pre-treated leaves per plant to provide a total of 40 microliters for each plant. Plants were kept in a growth chamber, and leaf bleaching was observed 3 days post treatment.

[4] = Protocol 3, 29 g/acre, copy number 16, 13 DAT

Molecule	Chlorophyll (day 7) [2]	Chlorophyll (day 12) [2]	systemic regulation (suppression) of the target phytoene desaturase gene [2]	Bleaching (day 5) [2]	other results
IDT [3]: Palmer/EPSPS dsRNA, SEQ ID NO. 87, 88 (chain 1 GGUCGACAACUUGCUGUAUAGUGAT; chain 2 AUCACUAUACAGCAAGUUGUCGACCUC; chain 1: sugars from the 5' end r23 d2, backbone not given here; chain 2: RNA, backbone not given here)					Results: stunted [1, 4]: 51% stunted
IDT [2]: Palmer/EPSPS dsRNA, SEQ ID NO. 85, 86 (chain 1 AGUUGGUGGGCAAUCAUCAAUUGTT; chain 2 AACAAUUGAUGAUUGCCCACCAACUCU; chain 1: sugars from the 5' end r23 d2, backbone not given here; chain 2: RNA, backbone not given here)					Results: control [1, 4]: 0% control
Treatment 8: SEQ ID NO: 22, 23; anti-sense 22-mer oligos without T7 promoter (antisense 1 CATCTCCTTTAATTGTACTGCC; antisense 2 TTTAATTGTACTGCCATTATTC; listed as DNA, chemistry not given here)					bleaching of apical leaves (FIG. 15) ([2]; another assay, listed as PDS anti-sense): strong bleaching; also recorded: apical leaf bleaching observed
7 (sense 1 GCAAGAGATGTCCTAGGTGGG; sense 2 ACAGATTTCTTCAGGAGAAACATGG; DNA, backbone not given here) [compound 7]	32.0	41.1	did not suppress	not yet	
6 (sense ATCCATGATATCGTGAACATC; antisense GCAAAGAAAAATGCGTCG; DNA, backbone not given here) [compound 6]	34.2	38.2	did not suppress	not yet	
IDT [1]: Palmer/EPSPS dsRNA, SEQ ID NO. 83, 84; 25-mer sense with two 3′ deoxyribonucleotides, 27-mer anti-sense (sense CUACCAUCAACAAUGGUGUCCAUAC; antisense GUAUGGACACCAUUGUUGAUGGUAGUA; sense: sugars from the 5' end r23 d2, backbone not given here; antisense: RNA, backbone not given here)					Results: stunted [1, 4]: 51% stunted
8 (antisense 1 CATCTCCTTTAATTGTACTGCC; antisense 2 TTTAATTGTACTGCCATTATTC; DNA, backbone not given here) [compound 8]	11.3	3.2	effective	strong	
IDT [5]: Palmer/EPSPS dsRNA (21-mer) with blunt ends, SEQ ID NO. 91, 92 (chain 1 AACAUGAACAAAAUGCCAGAU; chain 2 AUCUGGCAUUUUGUUCAUGUU; RNA, backbone not given here)					Results: stunted ([1]; Protocol 1, 0.29 g/acre, copy number 33, 54, 55, 18 DAT): 71%; Results: killed ([1]; Protocol 1, 2.9 g/acre each, copy number 34, 36, 54, 22 DAT): 100% kill; Results: killed ([1]; Protocol 1, 2.9 g/acre, copy number 33, 54, 55, 18 DAT): 100% killed
B1			also effective		bleaching of apical leaves (FIG. 12A) ([2]; 200-mer dsRNA at 0.6 microM, oligonucleotides 25 microM each): Bleaching of apical leaves was observed
B2					bleaching of leaves ([3]; 0.6 micromolar, 40 microliters per plant, 3 days post treatment): showed bleaching of leaves; bleaching of leaves (FIG. 17) ([3]; separate assay): apical leaf bleaching observed
B3	30.2	34.4		not yet	
